Measurements published in patent US10227561B2, “Methods and compositions for targeting progenitor cell lines” (Mandala Biosciences, LLC, priority 2012, dated 2019).
Where two headings read alike, the source gives them in different places.

How the values were obtained:
[1] = test system: somatic cells; conditions: cited from earlier work
[2] = test system: W10 progenitor cell line; experiment: Immunofluorescent staining of bound phage; format: binding, human; conditions: peptide display phage, 2×10^10 pfu/well, live cells, 2 h at 37° C.
Procedure: The binding specificity of selected phages was determined by immunofluorescent staining of bound phage to the surface of W10 progenitor cell line. Cells were plated at 100,000 cells/well in 24 well plates and incubated overnight. Phages at 2×10^10 pfu/well were diluted in 0.5 ml of W10 growth media supplemented with 2% BSA and incubated with live cells for 2 h at 37° C. Cells were washed as for the selection experiments and fixed by 4% paraformaldehyde for 20 min at RT. Cells were washed twice with PBS and permeabilized by ice-cold MeOH for 15 min on ice. After another two washes, cells were blocked with 5% goat serum in 2% BSA in PBS for 1 h at RT or overnight at 4° C. Cells were incubated with 1:700 dilution of rabbit anti-Fd bacteriophage antibody (Sigma, B7786) in 2% BSA in PBS for 1 h at RT. Cells were washed with 2 ml of 1% BSA in PBS three times, and incubated with 1:1000 dilution of goat anti-rabbit AlexaFluor568 conjugated antibody (Invitrogen, A11011) in 1% BSA in PBS for 1 h at RT. Cells were counterstained with DAPI at 0.1 μg/ml after final washes and photographed by an Olympus IX71 fluorescence microscope. Images were taken and processed using MetaMorph (version 7.5.6.0, Molecular Devices), ImageJ (version 1.45b, National Institute of Health) or Photoshop (version 9.0.2, Adobe) software.

[3] = test system: W10 cells; experiment: Peptide competition for phage binding; design: species or system human; conditions: for specificity of binding (lack of competition with scrambled peptides): free peptide against scrambled peptide; for competition of the 2 peptides with each other for W10 cell binding: data not shown
Procedure: Cells were plated at 100,000 cells/well in 24 well plates and incubated overnight. The corresponding synthetic peptide for each peptide phage or control peptides (unrelated or scrambled sequence peptide) were pre-incubated with cells at 5 nM or 5 μM in W10 growth media supplemented with 2% BSA for 30 min at 4° C. Peptide phages at 2×10^10 pfu/well were added to the peptide dilution and incubated with live cells for 1 h at 4° C. Peptide phage bound to cells was detected by immunostaining and fluorescence microscopy using anti-phage antibody on fixed and permeabilized cells or quantified by titration of phages recovered from cell lysates. The percentage of recovered phage for the competition assay was normalized by the recovered phage in the no-peptide control. Duplicate independent experiments were performed for competition experiments.

[4] = test system: W10 cells; experiment: Cell labeling with peptide targeted Qdot complexes (microscopy, flow cytometry); format: cell-based, human
Procedure: (§1) For flow cytometric analysis of labeled cells, cells were removed from the plates using TrypLE for 5 min at 37° C. Cells were resuspended in PBS, passed through strain top tubes and analyzed using flow cytometer. Control samples included unlabeled cells and cells labeled with untargeted Qdots. For each sample, 10,000 events were quantified. The LSRFortessa flow cytometer (BD Biosciences) was used with a violet laser excitation at 405 nm with a 605/23 bandpass filter to detect Qdot605 and the yellow laser excitation at 561 nm with a 670/30 bandpass filter to detect Qdot655. Cell autofluorescence was detected with the blue laser excited at 488 nm and a 510/25 bandpass filter.
2 μM of Qdot Streptavidin conjugate (Qdot605 ITK SA, Invitrogen, Q10001MP) were diluted in 100 μl of binding buffer (supplied with Qdot605 ITK SA) and incubated with 100-fold excess of biotinylated peptide on ice for 1 h. Uncoupled biotinylated peptide was removed from the mixture by incubating it with streptavidin magnetic beads equilibrated in PBS on ice for 30 min; placing the mixture on a magnetic stand to separate the beads and removed the complexes in solution. SA-beads were washed with PBS and combined with the recovered complexes. For control reactions, Qdots were incubated with binding buffer and treated in similar way as the peptide complexes. […]

[5] = test system: 10 embryonic progenitor cell lines; experiment: Selectivity of Qdot peptide complexes, panel of progenitor lines; format: cell-based, human; conditions: out of the 10 lines; peptide targeted Qdots, flow cytometry
Procedure: (§2) FIG. 6. Selectivity of Qdot peptide complexes. Embryonic progenitor cell lines were labeled with Qdot complexes in their corresponding growth media and analyzed by flow cytometry as in (FIG. 5C). Percentage of labeled cells was calculated by setting up gates (allowing up to 1%) using the progenitor cell line labeled with untargeted Qdots and unlabeled cells. 10,000 events were recorded for each sample. Values are from triplicate experiments and shown as mean+/−standard error.
as §1
2 μM of Qdot Streptavidin conjugate (Qdot605 ITK SA, Invitrogen, Q10001MP) were diluted in 100 μl of binding buffer (supplied with Qdot605 ITK SA) and incubated with 100-fold excess of biotinylated peptide on ice for 1 h. […]

[6] = test system: hPS cells differentiated using culture conditions for definitive endoderm; experiment: Peptide targeted Qdot labeling of differentiating hPS cells; format: cell-based, human; conditions: definitive endoderm conditions (high activin A, low serum); 5 nM, 16 h at 37° C.
Procedure: (§3) FIG. 7A and FIG. 7B. Labeling of a differentiating pluripotent stem cells using peptide targeted Qdots. FIG. 7A: Selective peptide targeting of human embryonic stem cells (H9) that were differentiated into the three germ layers (see methods for protocols) for 6-8 days compared to undifferentiated control. Differentiated cells were incubated for 16 h at 37° C. with 5 nM of Qdot complexes, washed and imaged using a fluorescence microscope. Representative bright-field and fluorescent signal of W10 peptide Qdot complexes (red) are shown. FIG. 7B: Cells were stained with the following differentiation markers to verify the germ layer commitment: nestin for ectoderm, α-actinin for mesoderm, SOX17 for endoderm conditions and OCT3/4 for undifferentiated cells.
(§4) 2 μM of Qdot Streptavidin conjugate (Qdot605 ITK SA, Invitrogen, Q10001MP) were diluted in 100 μl of binding buffer (supplied with Qdot605 ITK SA) and incubated with 100-fold excess of biotinylated peptide on ice for 1 h. Uncoupled biotinylated peptide was removed from the mixture by incubating it with streptavidin magnetic beads equilibrated in PBS on ice for 30 min; placing the mixture on a magnetic stand to separate the beads and removed the complexes in solution. SA-beads were washed with PBS and combined with the recovered complexes. For control reactions, Qdots were incubated with binding buffer and treated in similar way as the peptide complexes. The concentration of Qdot-peptide complexes was estimated based on the final volume recovered. To label cells with the Qdot-complexes, 100,000 cells were plated on gelatin-coated wells of 24 well plates were incubated for 6 hours; 5 nM of Qdot-peptides in growth media was added to the cells and incubated for 16 h at 37° C. Cells were imaged after washes with PBS to remove the unbound Qdot-complexes.
(§5) For ectoderm differentiation conditions, embryoid bodies (EBs) were formed from colonies by manual techniques and grown in complete NPC media (DMEM-F12:Neurobasal media 1:1+50 μl/ml BIT9500 Serum substitute (Stemgent)+1% GlutaMax+1% penicillin-streptomycin+1 μl/ml B27 supplement (Invitrogen)+5 mM nicotinamide+5 μg/ml insulin+20 ng/ml EGF+20 ng/ml bFGF) in low attachment plates for 6 days; EBs were then plated on fibronectin-coated wells and grown for another 3 days. For mesoderm differentiation conditions, EBs were cultured as above except that media was DMEM-F12 with GlutaMax+20% FBS+1% NEAA+1% penicillin-streptomycin, and plated on 0.1% gelatin-coated wells. For endodermal differentiation conditions, undifferentiated H9 cells were transferred from colonies growing with MEFs to Geltrex™ (Life Technologies, Grand Island, N.Y.)-coated wells and grown for 2 days with MEF-conditioned media+4 ng/ml bFGF. From day 2, cells were grown for another 5 days in RPMI+0.5% FBS+100 ng/ml Activin A.

[7] = test system: hPS cells grown under mesoderm differentiation conditions; experiment: as above; format: cell-based, human; conditions: 5 nM, 16 h at 37° C.
Procedure: as §3, §4, §5

[8] = test system: 4D20.8 cells; experiment: Qdot peptide complex labeling, flow cytometry; format: cell-based, human
Procedure: as §2, §1, §4

[9] = test system: 7PEND24 cell line; experiment: Qdot peptide complex labeling, flow cytometry; format: cell-based, human; conditions: for cell labeling by peptide Qdot complexes: 7PEND24, in words
Procedure: as §2, §1, §4

[10] = test system: E15 cells; experiment: Qdot peptide complex labeling, flow cytometry; format: cell-based, human
Procedure: as §2, §1, §4

[11] = test system: MW1 cell line; experiment: Qdot peptide complex labeling, flow cytometry; format: cell-based, human
Procedure: as §2, §1, §4

[12] = test system: SM30 cell line; experiment: Qdot peptide complex labeling, flow cytometry; format: cell-based, human
Procedure: as §2, §1, §4

Molecule | binding of peptide phage detected by immunocytochemical staining [2] | specificity of binding (lack of competition with scrambled peptides) [3] | cell labeling by Qdot complexes [6] | cell labeling by Qdot complexes [7] | competition of the 2 peptides with each other for W10 cell binding [3] | cell labeling by peptide Qdot complexes [8] | cell labeling by peptide Qdot complexes [9] | cell labeling by peptide Qdot complexes [10] | other results
O=C(NCc1ccccc1)c1csc(Nc2ccncn2)n1 [Thiazovivin] | – | – | – | – | – | – | – | – | increase of reprogramming efficiency ([1]; Thiazovivin with the two previous chemicals (SB431412, PD0325901)): 200 fold
CCCC(CCC)C(=O)O [valproic acid] | – | – | – | – | – | – | – | – | increase of reprogramming efficiency ([1]; compared to Yamanaka's traditional transcription factor method): 100 fold
DWLWSFAPNVDT (FROM PHAGE DISPLAY LIBRARY) [W10 R3 18, W10 selected 12-mer; tested as M13 display phage, C-terminal biotinylated free peptide and streptavidin Qdot complex] | strongest binding | sequence specific | a high percentage of cells were labeled | a few small patches of labeled cells | – | – | – | – | percentage of cells labeled with peptide-Qdot complexes ([4]; 5 nM Qdot complexes, 16 h at 37° C., gated on untargeted Qdots): 90%; fluorescent shift of labeled cells ([4]; compared to untargeted Qdots): strong fluorescent shift; number of embryonic progenitor cell lines with a high percentage of cells bound [5]: 7
GWVIDYDYYPMR (FROM PHAGE DISPLAY LIBRARY) [W10 R2 11, W10 selected 12-mer; tested as M13 display phage, C-terminal biotinylated free peptide and streptavidin Qdot complex] | strongest binding | sequence specific | a high percentage of cells were labeled | a few small patches of labeled cells | can compete with each other | very little labeling | high percentage binding | very little labeling | –
GWYWETPLDMFN (FROM PHAGE DISPLAY LIBRARY) [W10 R2 21, W10 selected 12-mer; tested as M13 display phage, C-terminal biotinylated free peptide and streptavidin Qdot complex] | strongest binding | sequence specific | a high percentage of cells were labeled | a few small patches of labeled cells | can compete with each other | very little labeling | high percentage binding | very little labeling | competition for peptide phage binding (recovered phage, percentage of no-peptide control) ([3]; C-terminal biotinylated free peptide at 5 nM or 5 μM, 4° C.): only significant at 5 μM
YEFDNLLNRTLW (FROM PHAGE DISPLAY LIBRARY) [W10 R2 1, W10 selected 12-mer; tested as M13 display phage, C-terminal biotinylated free peptide and streptavidin Qdot complex] | strongest binding | – | highly restricted to a small percentage of cells | no labeling | – | no complex uptake | – | no complex uptake | cell labeling ([9]; 7PEND24): more than 15%; cell labeling [11]: more than 15%; cell labeling [12]: more than 15%
